Assay results: US6399585B1, “In Utero treatment of CFTR-related deficiencies” (priority 1996, dated 2002)

Tests used:
cftr deficient mice = assay: Survival of mice after in utero ATP or cftr treatment; type: in vivo, mouse
Protocol: Female heterozygous UNC knockout X C57bl/6 mouse 5th generation backcross mice were mated with either heterozygous and previously rescued homozygous knockout mice. At 15-16 days gestation animals were anesthetized as in Example (II)(C)(2) and the fetuses surgically exposed for injection. Virus (10^9 particles/ml of amniotic fluid) was injected into the amniotic fluid. Normal delivery of the animals was allowed to take place.
Female heterozygous UNC knockout X C57bl/6 mouse 5th generation backcross mice were mated with either heterozygous and previously rescued homozygous knockout mice. At 15-16 days gestation animals were anesthetized as in Example (II)(C)(2) and the fetuses surgically exposed for injection. 20 ul of a 20 mM ATP in sterile physiological saline was injected into the amniotic fluid. Normal delivery of the animals was allowed to take place.

[1] = test system: intracellular calcium stores; assay: Intracellular calcium stores in intestines (Calcium Green, confocal microscopy); type: in vivo, mouse; details: cftr−/− mice, in utero ATP-treatment, examined at 65 days old
Protocol: (§1) All tissues were sectioned and washed in phosphate buffered saline. Stock solutions (1 mM) of stains obtained from Molecular Probes were used. Two microliters/ml of either CaGreen-AM. (Molecular Probes) or Rhodamine green-UTP (Molecular Probes) was added to the tissue, then incubated for 1-2 hrs All samples were examined on a Noran Odyssey CLSM with a Nikon Diaphot inverted microscope. The software used for the imaging was Noran's Intervision running on a SGI Indy workstation.
Calcium plays an integral role in secretion. […] Calcium Green™, a flourescent stain for intracellular calcium, was applied to cross-sections of both control and in utero cftr-treated cftr−/− and cftr+/− mice. All samples were examined by confocal microscopy.
Intracellular calcium stores were evaluated after in utero ATP rescue, as previously described.

UTP receptors = UTP receptors in intestines (Rhodamine green-UTP staining); type: in vivo, mouse; details: knockout mice, ATP rescue, 65 day old mice
Protocol: as §1
Multiple purinergic receptors and multiple signal transduction pathways are activated in different membrane domains of tracheal epithelia (Hwang, Schwiebert et al. 1996) (Devidas and Guggino 1997). Functional characterization of the P2 purinoceptor superfamily support a diverse functional role for ATP and related nucleotides in the regulation of tissue function (Williams 1996). To examine the possible role of these purinergic receptors, changes in UTP receptors in treated and normal intestines were examined using UTP labeled with fluorescent rhodamine green to stain sections of intestines.
Changes in UTP receptors in ATP-treated intestines were examined using UTP labeled with fluorescent rhodamine green to stain sections of intestines.

ENaC = target: T1, ENaC (Homo sapiens, UniProt P37088+P51168+P51170); details: cited from earlier work
T1 sequence (P37088 1-669): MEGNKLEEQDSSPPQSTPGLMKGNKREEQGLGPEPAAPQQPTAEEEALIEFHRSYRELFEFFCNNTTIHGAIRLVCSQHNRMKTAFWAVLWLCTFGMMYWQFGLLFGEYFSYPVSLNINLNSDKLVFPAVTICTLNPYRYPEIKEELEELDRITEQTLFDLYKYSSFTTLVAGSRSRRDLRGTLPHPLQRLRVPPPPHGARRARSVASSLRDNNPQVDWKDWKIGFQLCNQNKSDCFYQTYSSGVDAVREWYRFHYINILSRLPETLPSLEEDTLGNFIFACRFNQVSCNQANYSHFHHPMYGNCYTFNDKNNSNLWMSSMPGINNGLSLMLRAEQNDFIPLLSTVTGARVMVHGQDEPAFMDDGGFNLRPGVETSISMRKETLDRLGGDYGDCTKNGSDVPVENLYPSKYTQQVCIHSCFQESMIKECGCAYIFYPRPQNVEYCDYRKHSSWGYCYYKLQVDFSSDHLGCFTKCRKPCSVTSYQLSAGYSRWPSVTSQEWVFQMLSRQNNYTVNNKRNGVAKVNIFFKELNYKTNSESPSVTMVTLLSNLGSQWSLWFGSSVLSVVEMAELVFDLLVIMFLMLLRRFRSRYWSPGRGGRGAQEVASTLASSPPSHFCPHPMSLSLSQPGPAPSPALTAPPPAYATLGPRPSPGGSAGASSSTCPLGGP
T1 sequence (P51168 1-640): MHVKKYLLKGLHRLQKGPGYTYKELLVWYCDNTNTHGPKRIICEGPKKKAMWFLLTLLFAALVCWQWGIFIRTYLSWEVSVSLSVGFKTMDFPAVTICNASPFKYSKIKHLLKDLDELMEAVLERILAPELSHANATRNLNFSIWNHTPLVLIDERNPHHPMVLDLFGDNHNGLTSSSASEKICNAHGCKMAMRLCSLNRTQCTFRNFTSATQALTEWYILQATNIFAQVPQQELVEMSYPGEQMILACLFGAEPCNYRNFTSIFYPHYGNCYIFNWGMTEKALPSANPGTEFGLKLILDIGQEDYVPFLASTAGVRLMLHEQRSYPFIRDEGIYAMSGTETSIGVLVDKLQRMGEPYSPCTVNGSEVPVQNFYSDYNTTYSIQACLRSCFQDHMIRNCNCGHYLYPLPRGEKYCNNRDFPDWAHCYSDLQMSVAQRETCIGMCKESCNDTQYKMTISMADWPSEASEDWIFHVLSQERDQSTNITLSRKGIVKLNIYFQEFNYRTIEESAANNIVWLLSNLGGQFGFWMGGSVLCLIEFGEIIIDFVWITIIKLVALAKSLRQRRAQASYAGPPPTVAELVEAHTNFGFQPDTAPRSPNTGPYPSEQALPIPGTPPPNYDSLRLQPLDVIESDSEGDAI
T1 sequence (P51170 1-649): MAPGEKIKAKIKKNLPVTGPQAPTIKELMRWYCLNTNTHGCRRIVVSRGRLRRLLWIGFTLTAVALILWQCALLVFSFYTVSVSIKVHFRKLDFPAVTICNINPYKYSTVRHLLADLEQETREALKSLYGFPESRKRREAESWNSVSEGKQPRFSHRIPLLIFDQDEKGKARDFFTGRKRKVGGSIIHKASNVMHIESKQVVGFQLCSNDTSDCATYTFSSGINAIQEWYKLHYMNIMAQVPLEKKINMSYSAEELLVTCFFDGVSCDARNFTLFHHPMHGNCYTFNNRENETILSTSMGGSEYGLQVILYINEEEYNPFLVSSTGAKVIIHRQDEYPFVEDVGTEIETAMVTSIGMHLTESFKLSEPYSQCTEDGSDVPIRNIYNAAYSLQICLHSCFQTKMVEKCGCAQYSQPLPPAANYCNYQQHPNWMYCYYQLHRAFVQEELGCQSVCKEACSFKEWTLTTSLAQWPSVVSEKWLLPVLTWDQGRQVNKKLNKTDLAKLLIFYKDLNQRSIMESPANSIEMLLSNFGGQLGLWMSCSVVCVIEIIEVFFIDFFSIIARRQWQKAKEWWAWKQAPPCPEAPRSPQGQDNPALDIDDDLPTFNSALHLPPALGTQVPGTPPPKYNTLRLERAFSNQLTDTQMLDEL

non-CFTR Cl- channels = details: cited from earlier work
[2] = Table 8, living greater than 60 days

With `Nc1ncnc2c1ncn2[C@@H]1O[C@H](COP(=O)(O)OP(=O)(O)OP(=O)(O)O)[C@@H](O)[C@H]1O` [ATP, adenosine triphosphate] as the compound, how does the “survival of cftr deficient mice” value (cftr deficient mice; 20 ul of 20 mM ATP into amniotic fluid at 15-16 days gestation) read?
The value was “improved the survival”.

What about the “+/− Survivors, number” value (cftr deficient mice; [2]) of the same compound?
The value was 9.

And the “−/− Survivors, number” value (cftr deficient mice; [2])?
The value was 3.

What about the “+/+ Survivors, number” value (cftr deficient mice; Table 8, living greater than 60 days, treated at 15-16 days gestation) of the same compound?
Its value is 4.

What about the “+/+ Survivors (%)” value (cftr deficient mice; Table 8, share of survivors) of the same compound?
The value was 25%.

What about the “+/− Survivors (%)” value (cftr deficient mice; Table 8, share of survivors) of the same compound?
The value was 56%.

And the “−/− Survivors (%)” value (cftr deficient mice; Table 8, share of survivors)?
Its value is 19%.

And the “toxicity inferred from genotype distribution of survivors” value (cftr deficient mice; regardless of genotype)?
The value was “non-toxic”.

What about the “intracellular Ca2+ stores in intestines” value [1] of the same compound?
The value was “restored intracellular Ca2+ in cells of the crypt”.

And the “UTP receptors in intestines” value (UTP receptors)?
Its value is “restored the UTP receptors”.

Which ENaC conduction (ENaC) does the source give for `N=C(N)NC(=O)c1nc(Cl)c(N)nc1N` [Amiloride] here?
The ENaC conduction was “block conduction”.

What does the source list for `O=c1ccn([C@@H]2O[C@H](COP(=O)(O)OP(=O)(O)OP(=O)(O)O)[C@@H](O)[C@H]2O)c(=O)[nH]1` [UTP, uridine triphosphate]?
Cl- (and liquid) secretion (non-CFTR Cl- channels; aerosolized, CF airway epithelia): induces Cl- (and liquid) secretion; mucociliary clearance (non-CFTR Cl- channels; aerosolized, pilot studies in normal subjects): effective stimulator of mucociliary clearance; tolerability (non-CFTR Cl- channels; short-term aerosolized, normal subjects and patients with CF): well tolerated

With `Nc1nc(N)c2nc(-c3ccccc3)c(N)nc2n1` [triamterene] as the compound, how does the ENaC conduction (ENaC) read?
Its ENaC conduction is “block conduction”.
